Laboratory results: patent US20040102501A1, “Stable, low free formaldehyde, synergistic antimicrobial compositions of aldehyde donors and dehydroacetic acid” (priority 2002, published 2004)

Legend:
[1] = tested on: Mixed bacteria: equal mixture of Staphylococcus aureus (ATCC No. 6538), Pseudomonas aeruginosa (ATCC No. 9027), and Escherichia coli (ATCC No. 8739); assay: Synergy at Day 14 (Kull method, QA/Qa+QB/Qb) from mixed bacteria challenge test; format: cell-based; conditions: DHA alone
Method: A synergistic effect is a response to a combination of two or more components that produce an effect greater than the sum of their individual effects. […] E. Kull et al., “Mixtures of Quaternary Ammonium Compounds and Long-chain Fatty Acids as Antifungal Agents”, Applied Microbiology, 9:538-541 (1961). The synergism value is determined by the formula: […]
where QA is the quantity of Compound A in mixture, producing an endpoint; Qa is the quantity of Compound a acting alone, producing an endpoint; QB is the concentration of Compound B in the mixture, producing an endpoint. Qb is the concentration of Compound b acting alone, producing an endpoint.
When the value of (QA/Qa+QB/Qb) is less than one, the mixture is synergistic. Values for (QA/Qa+QB/Qb) of 1 and greater than 1, represent an additive effect and an antagonistic effect, respectively. According to this method of measuring synergism, the quantity of each component in the various mixtures is compared with the quantity of pure component that is required to reach the same endpoint or to produce the same microbiological effect as the mixture. […]

[2] = tested on: Mixed bacteria: equal mixture of Staphylococcus aureus (ATCC No. 6538), Pseudomonas aeruginosa (ATCC No. 9027), and Escherichia coli (ATCC No. 8739); assay: Preservative challenge test against mixed bacteria in anionic protein shampoo; format: cell-based
Method: Mixed bacteria challenge tests were performed by adding approximately 1-5×10^6 organisms per gram of formulation, the organisms comprising an equally divided mixture of Staphylococcus aureus (ATCC No. 6538), Pseudomonas aeruginosa (ATCC No. 9027), and Escherichia coli (ATCC No. 8739) incubated at 36° C. on nutrient agar […] 24 hours prior to testing. The test samples were incubated at 23° C. (room temperature) for the number of days indicated, after which an aliquot of the sample was taken and diluted stepwise to a 10^6 fold reduction in concentration. The diluted samples were plated out on tryptic soy agar and incubated for 48 hours at 36° C. After incubation, readings of the total number of colony forming units per gram (cfu/g) were made on the samples. Table 3 illustrates the levels at which the individual components Glydant®2000 and DHA are effective and ineffective against bacteria.

[3] = 0.150% preservative as supplied

SMILES: CC(=O)C1C(=O)C=C(C)OC1=O (stereo not shown) [DHA, dehydroacetic acid]
- Qb (concentration of Compound b acting alone, producing an endpoint) [1]: 0.2%
- Day 0 cfu/g. [2, 3]: 3.0 × 10^6 cfu/g
- Day 7 cfu/g. [2, 3]: 8.0 × 10^3 cfu/g
- Day 14 cfu/g. [2, 3]: 1.0 × 10^6 cfu/g
- Day 0 cfu/g. ([2]; 0.20% preservative as supplied): 3.0 × 10^6 cfu/g
- Day 7 cfu/g. ([2]; 0.20% preservative as supplied): 1.0 × 10^3 cfu/g
- Day 14 cfu/g. ([2]; 0.20% preservative as supplied): <10 cfu/g
